From US20100249030A1, “ANTI-MITOTIC AGENT AND AURORA KINASE INHIBITOR COMBINATION AS ANTI-CANCER TREATMENT” (Schering Corporation, priority 2007, published 2010)
Where two headings read alike, the source gives them in different places.

Legend:
cancer cell lines = conditions: cited from earlier work; for synergy with Taxotere: Hoover and Harding 2007; for cell growth inhibition in combination with a taxane: VX-680 with taxotere, VE-645 with taxol, AZD1152 with taxol, AACR 2007 abstracts
phos-MPM2 marker = assay: Exit from mitosis measured by phos-MPM2 marker after anti-mitotic induced arrest; type: cell-based; conditions: taxane and KSP induced arrest
Procedure: (§1) Single agent Aurora kinase inhibitors require a drug exposure time of 24 hours to induce endoreduplication in asynchronous cells.

[1] = tested on: HCT-116 colon cancer cells; assay: FACS (flow cytometric) analysis of endoreduplication (>4N DNA content) in HCT-116 colon cancer cells; type: cell-based; conditions: for endoreduplication: FACS at 24 hours; for exposure to Aurora kinase inhibitor required to induce endoreduplication (>4N DNA content) or cell death: asynchronous cells, 250 nM VX-680, 1000 nM COMPOUND X, 25 nM COMPOUND Z; for exposure to Aurora kinase inhibitor required to induce endoreduplication (>4N DNA content) or cell death / endoreduplication (>4N DNA content): single agent; for time required for Aurora inhibitor to induce endoreduplication, change after pre-treatment: following 16 hour pre-treatment with nocodazole, 250 nM VX-680, 1000 nM COMPOUND X or COMPOUND Z; for effect of anti-mitotic pre-treatment on the exposure time required for an Aurora kinase inhibitor to induce endoreduplication: 16 hour pre-treatment with the anti-mitotic agent (5 nM taxol, 10-50 nM KSP inhibitors); for cell cycle distribution after release from anti-mitotic pretreatment: 16 hours pretreatment (5 nM taxotere / 0.4 μg/ml nocodazole), then released into DMSO; for cell cycle distribution after anti-mitotic pretreatment (labeled 0 hours): 16 hours pretreatment, 5 nM taxotere / 0.4 μg/ml nocodazole
Procedure: Asynchronous cells require 24 hour exposure to Aurora kinase inhibitors (such as 250 nM VX-680 or 1000 nM COMPOUND X. (Compound X is disclosed in WO 2008/057512, filed Nov. 6, 2007, Example 4-3 and Claim 70, Example 4-3 and Claim 70 and is shown below and it is represented in Formula H and Table 2, column 2, row 17 of the present application) or 25 nM COMPOUND Z (Compound Z is disclosed in PCT US2008/007295, filed Jun. 11, 2008, Example 76-2 and Claim 25, row 7, column 4 and it is represented in Table 13, compound 76-2 of the present application)) to induce endoreduplication (>4N DNA content) or cell death. For example, HCT-116 colon cancer cells were treated with 1000 nM COMPOUND X or 25 nM COMPOUND Z for the indicated times at which time the drug was washed off and replaced with new media see FIG. 1 and FIG. 8 respectively. Cells were analyzed by FACS after a total of 72 hours.
For example, HCT-116 colon cancer cells were treated with 1000 nM COMPOUND X or 25 nM COMPOUND Z for the indicated times at which time the drug was washed off and replaced with new media see FIG. 2 and FIG. 9 respectively. Cells were analyzed by FACS after a total of 24 hours.
For example, HCT-116 colon cancer cells were treated for 16 hours with DMSO (FIG. 3) or 5 nM taxotere and then exposed to DMSO or 1000 nM COMPOUND X or 25 nM COMPOUND Z for 4, 8, and 24 hours. After 4 or 8 hours, COMPOUND X or COMPOUND Z was washed off and new media was added to the cells. Cells were harvested after 24 hours and analyzed by FACS (see FIG. 4 and FIG. 11 respectively). Following DMSO pretreatment, DMSO had no effect on cell cycle distribution. […] Endoreduplication was observed even when COMPOUND X or COMPOUND Z exposure was as little as 4 hours.
However, following a 16 hour pre-treatment with nocodazole for incrusting, the time required for an Aurora inhibitor (such as 250 nM VX-680 or 1000 nM COMPOUND X or COMPOUND Z) to induce endoreduplication was […]. For example, HCT-116 colon cancer cells were treated for 16 hours with 0.4 μg/ml nocodazole see FIG. 5, and then exposed to DMSO or 1000 nM COMPOUND X or COMPOUND Z for 4, 8 or 24 hours. After 4 or 8 hours, COMPOUND X or COMPOUND Z was washed off and new media was added to the cells. Cells were harvested after 24 hours and analyzed by FACS.
For example, HCT-116 colon cancer cells that were not pretreated, were treated with 5 nM taxotere plus DMSO or 1000 nM COMPOUND X or COMPOUND Z concurrently for 4, 8, or 24 hours. At the indicated time the media was removed and replaced with new media and taxotere was added back into these cells. Cells were harvested after 24 hours and analyzed by FACS see FIG. 6 or FIG. 12 respectively.

[2] = tested on: HCT-116 colon cancer cells; assay: as above; type: cell-based; conditions: after 16 hours 10 nM Ispinesib pretreatment; 1000 nM Compound X / 25 nM Compound Z
[3] = tested on: phosphorylation of Histone H3 (at serine-10); assay: Inhibition of phosphorylation of Histone H3 (serine-10) stimulated by anti-mitotic agents; type: cell-based; conditions: stimulated by taxanes, KSP inhibitor, and nocodazole
Procedure: as §1

[4] = tested on: cells arrested with taxol, monastrol or nocodazole; conditions: Morrow et al. 2005, Ditchfield et al. 2003, cited from earlier work
[5] = 24 hour exposure, FACS after a total of 24 hours, 250 nM VX-680 / 1000 nM Compound X / 25 nM Compound Z
[6] = exposure less than 24 hours then washed off, FACS after a total of 24 hours, 250 nM VX-680 / 1000 nM Compound X / 25 nM Compound Z

In the case of `Cc1cc(Nc2cc(N3CCN(C)CC3)nc(Sc3ccc(NC(=O)C4CC4)cc3)n2)n[nH]1` [MK-0457], the “synergy with Taxotere” value (cancer cell lines; long-term survival assays) is listed as “synergy occurred with simultaneous exposure” and the “synergy with Taxotere” value (cancer cell lines; short-term viability assays) is listed as “synergy occurs with sequential and not simultaneous exposure”.
With `CSc1cn2c(-c3cn[nH]c3)cnc2c(Nc2cc(C)ns2)n1` [Compound X] the “exit from mitosis, as measured by phos-MPM2 marker” value (“exit from mitosis, as measured” for short) (phos-MPM2 marker) was “accelerated the exit from mitosis”, the endoreduplication ([1]; 16 hours 5 nM taxotere pretreatment, then 1000 nM Compound X or 25 nM Compound Z for 4, 8 and 24 hours) was “induced endoreduplication” and the endoreduplication ([1]; 16 hours 10 nM Ispinesib (KSP inhibitor) pretreatment, then 1000 nM Compound X or 25 nM Compound Z for 4, 8 and 24 hours) was “induced endoreduplication”. For the same molecule, the endoreduplication ([1]; 16 hours DMSO pretreatment, then 1000 nM COMPOUND X or 25 nM COMPOUND Z for 4, 8 and 24 hours) was “induced endoreduplication, but only when COMPOUND X or COMPOUND Z exposure was 24 hours”, the endoreduplication ([1]; 16 hours nocodazole (0.4 μg/ml) pretreatment, then 4- or 8-hour exposure to Aurora kinase inhibitor) was “insufficient to induce endoreduplication” and the endoreduplication ([1]; 16 hours nocodazole (0.4 μg/ml) pretreatment, then 24 hour exposure to Aurora kinase inhibitor) was “induced endoreduplication”. For the same molecule, the endoreduplication ([1]; Aurora kinase inhibitor given at the same time as 5 nM taxotere, 4 hour exposure) was “not sufficient to induce endoreduplication”, the “exposure needed to induce endoreduplication” value ([1]; Aurora kinase inhibitor given at the same time as 5 nM taxotere, no pretreatment) was 24 h and the “Aurora kinase inhibitor exposure at which endoreduplication was still observed (as little as)” value ([1]; after 16 hours 5 nM taxotere pretreatment, 1000 nM Compound X / 25 nM Compound Z) was no more than 4 h. For the same molecule, the “exposure to Aurora kinase inhibitor required to induce endoreduplication (>4N DNA content) or cell death” value [1] was 24 h, the “time required for Aurora inhibitor to induce endoreduplication, change after pre-treatment” value [1] was “not reduced” and the “endoreduplication (>4N DNA content)” value [1, 5] was “sufficient to induce endoreduplication”. The “endoreduplication (>4N DNA content)” value ([1]; drug exposure for 24, 48, or 72 hours, FACS after a total of 72 hours, 1000 nM Compound X / 25 nM Compound Z) was “resulted in the accumulation of cells that underwent endoreduplication”, the “endoreduplication (>4N DNA content)” value ([1]; exposure less than 24 hours then drug washed off, FACS after a total of 72 hours, 1000 nM Compound X / 25 nM Compound Z) was “insufficient to induce endoreduplication” and the “endoreduplication (>4N DNA content)” value [1, 6] was “insufficient to induce endoreduplication”. For the same molecule, the “Aurora kinase inhibitor exposure at which endoreduplication was still observed (as little as)” value [2] was no more than 4 h and the “inhibition of phosphorylation of Histone H3 (at serine-10)” value [3] was “capable of inhibiting phosphorylation of Histone H3”.
With `Cc1cc(Nc2cc(N3CCN(C)CC3)nc(Sc3ccc(NC(=O)C4CC4)cc3)n2)n[nH]1` [VX-680, reference compound] the “exit from mitosis, as measured” value (phos-MPM2 marker) was “accelerated the exit from mitosis”, the “exposure to Aurora kinase inhibitor required to induce endoreduplication (>4N DNA content) or cell death” value [1] was 24 h and the “time required for Aurora inhibitor to induce endoreduplication, change after pre-treatment” value [1] was “not reduced”. The “endoreduplication (>4N DNA content)” value [1, 5] was “sufficient to induce endoreduplication”, the “endoreduplication (>4N DNA content)” value [1, 6] was “insufficient to induce endoreduplication” and the “cell growth inhibition in combination with a taxane” value (cancer cell lines) was “showed enhanced cell growth inhibition”. For the same molecule, the “inhibition of phosphorylation of Histone H3 (at serine-10)” value [3] was “capable of inhibiting phosphorylation of Histone H3”.
For `CCN(CCCOc1ccc2c(Nc3cc(CC(=O)Nc4cccc(F)c4)n[nH]3)ncnc2c1)CCOP(=O)(O)O` [AZD1152, reference compound], the “exit from mitosis, as measured” value (phos-MPM2 marker) is given as “accelerated the exit from mitosis” and the “cell growth inhibition in combination with a taxane” value (cancer cell lines) is given as “showed enhanced cell growth inhibition”.
For `COc1cc2c(Nc3ccc(NC(=O)c4ccccc4)cc3)ncnc2cc1OCCCN1CCOCC1` [ZM4477439], the mitotic arrest ([4]; arrest induced by nocodazole) is given as “not by nocodazole” and the mitotic arrest ([4]; arrest induced by taxol) is given as “abrogated mitotic arrest induced by taxol”.
For `CC[C@]1(O)C[C@H]2CN(CCc3c([nH]c4ccccc34)[C@@](C(=O)OC)(c3cc4c(cc3OC)N(C=O)[C@H]3[C@@](O)(C(=O)OC)[C@H](OC(C)=O)[C@]5(CC)C=CCN6CC[C@]43[C@@H]65)C2)C1` [vincristine, reference compound], the “effect of anti-mitotic pre-treatment on the exposure time required for an Aurora kinase inhibitor to induce endoreduplication” value [1] was “did not result in the same reduction in required exposure time”.
For `COC(=O)Nc1nc2ccc(C(=O)c3cccs3)cc2[nH]1` [nocodazole, reference compound], the “effect of anti-mitotic pre-treatment on the exposure time required for an Aurora kinase inhibitor to induce endoreduplication” value [1] was “did not result in the same reduction in required exposure time”, the “cell cycle distribution after release from anti-mitotic pretreatment” value [1] was “exited mitosis” and the “cell cycle distribution after anti-mitotic pretreatment (labeled 0 hours)” value [1] was “accumulated in mitosis (4N DNA)”.
In the case of `CC(=O)O[C@@]12CO[C@@H]1C[C@H](O)[C@@]1(C)C(=O)[C@H](O)C3=C(C)[C@@H](OC(=O)[C@H](O)[C@@H](NC(=O)OC(C)(C)C)c4ccccc4)C[C@@](O)([C@@H](OC(=O)c4ccccc4)[C@H]21)C3(C)C` [Taxotere, docetaxel, reference compound], the “cell cycle distribution after release from anti-mitotic pretreatment” value [1] is reported as “exited mitosis” and the “cell cycle distribution after anti-mitotic pretreatment (labeled 0 hours)” value [1] is reported as “accumulated in mitosis (4N DNA)”.
